Laboratory results as given in patent US20110306597A1, “Nicotinamide Derivatives” (priority 2008, published 2011).

Biological target: human recombinant H-PGDS (Homo sapiens, UniProt O60760)
Assay: Fluorescence Intensity h-PGDS TBA Enzyme Assay
Assay type: biochemical
Conditions: 1:175,000 human recombinant H-PGDS, highest inhibitor concentration typically 1 μM
How it was run: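 Recombinant human H-PGDS preincubated 10 min at room temperature with inhibitor in 100 mM Tris pH 8.0, 100 μM MgCl2, 2.5 mM glutathione, 0.5% DMSO; 5.0 μM PGH2 added, stopped after 42 s with FeCl2/citric acid. Remaining PGH2 measured as MDA–TBA fluorescence (ex 530/em 565 nm); IC50 by 4-parameter fit, 11 concentrations.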

Chain of human recombinant H-PGDS (O60760 whole entry): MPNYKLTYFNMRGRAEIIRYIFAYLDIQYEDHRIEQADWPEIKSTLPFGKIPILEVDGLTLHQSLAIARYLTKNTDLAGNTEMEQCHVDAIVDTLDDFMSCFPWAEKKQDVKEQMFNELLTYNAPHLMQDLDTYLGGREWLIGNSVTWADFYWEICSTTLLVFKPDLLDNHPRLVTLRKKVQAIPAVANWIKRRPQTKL

Molecule	IC50
COc1cccc(-c2ccc(C(=O)NCCN(C)C)cn2)c1 [Example 285, N-[2-(Dimethylamino)ethyl]-6-(3-methoxyphenyl) nicotinamide]	≥ 1000 nM
Cc1ncsc1CCNC(=O)c1ccc(-c2cccc(F)c2)nc1 [Example 132, 6-(3-Fluorophenyl)-N-[2-(4-methyl-1,3-thiazol-5-yl)ethyl]nicotinamide]	6.36 nM
CCCCCNC(=O)c1ccc(-c2ccccc2)nc1 [Example 381, N-Pentyl-6-phenylnicotinamide]	7.5 nM
COc1ccc(CNC(=O)c2ccc(-c3cc(F)cc(F)c3)nc2)cc1OC [Example 567, 6-(3,5-Difluorophenyl)-N-(3,4-dimethoxybenzyl)nicotinamide]	10.6 nM
O=C(NCCN1CCCC1)c1ccc(-c2ccccc2)nc1 [Example 358, 6-Phenyl-N-(2-pyrrolidin-1-ylethyl)nicotinamide]	199 nM
COc1cc(CCNC(=O)c2ccc(-c3cccc(F)c3)nc2)cc(OC)c1O [Example 21, 6-(3-Fluorophenyl)-N-[2-(4-hydroxy-3,5-dimethoxyphenyl)ethyl] nicotinamide]	4.94 nM
O=C(NC1CCCCNC1=O)c1ccc(-c2cccc(F)c2)nc1 (stereo not drawn) [Example 136, 6-(3-Fluorophenyl)-N-(2-oxoazepan-3-yl)nicotinamide]	3.51 nM
CCC(C)NC(=O)c1ccc(-c2cccc(C)c2)nc1 (stereo not drawn) [Example 450, N-sec-Butyl-6-(3-methylphenyl)nicotinamide]	42.5 nM
CCOC(=O)C1(NC(=O)c2ccc(-c3ccc(F)cc3)nc2)CCOCC1 [Example 495, Ethyl 4-({[6-(4-fluorophenyl)pyridin-3-yl]carbonyl}amino)tetrahydro-2H-pyran-4-carboxylate]	≥ 1000 nM
Cc1cccc(-c2ccc(C(=O)NCCN3CCCCC3=O)cn2)c1 [Example 224, 6-(3-Methylphenyl)-N-[2-(2-oxopiperidin-1-yl)ethyl]nicotinamide]	56.4 nM
NC(=O)[C@H](Cc1ccccc1)NC(=O)c1ccc(-c2cccc(F)c2)nc1 [Example 29, Nalpha-{[6-(3-fluorophenyl)pyridin-3-yl]carbonyl} phenylalaninamide]	17.6 nM
Cc1cccc(-c2ccc(C(=O)NC(=O)CC(N)C3CC3)cn2)c1 (stereo not drawn) [Example 248, N-(3-Amino-3-cyclopropylpropanoyl)-6-(3-methylphenyl)nicotinamide]	73.3 nM
O=C(NCCc1cccs1)c1ccc(-c2ccc(F)cc2)nc1 [Example 507, 6-(4-Fluorophenyl)-N-[2-(2-thienyl)ethyl]nicotinamide]	578 nM
O=C(NCCCN1CCCC1=O)c1ccc(-c2ccc(F)cc2)nc1 [Example 327, 6-(4-Fluorophenyl)-N-[3-(2-oxopyrrolidin-1-yl)propyl]nicotinamide]	597 nM
CN(C)C(=O)N1[C@@H]2CC[C@H]1C[C@H](NC(=O)c1ccc(-c3cccc(F)c3)nc1)C2 [Example 595, (3-exo)-3-({[6-(3-Fluorophenyl)-pyridin-3-yl]carbonyl}amino)-N,N-dimethyl-8-azabicyclo[3.2.1]octane-8-carboxamide]	3 nM
COc1cccc(-c2ccc(C(=O)NCC3CCCCO3)cn2)c1 (stereo not drawn) [Example 284, 6-(3-Methoxyphenyl)-N-(tetrahydro-2H-pyran-2-ylmethyl)nicotinamide]	519 nM
COC(=O)CCNC(=O)c1ccc(-c2cccc(OC)c2)nc1 [Example 335, Methyl N-{[6-(3-methoxyphenyl)pyridin-3-yl]carbonyl}-beta-alaninate]	352 nM
O=C(NC1CCOCC1)c1ccc(-c2ccccc2)nc1 [Example 366, 6-Phenyl-N-(tetrahydro-2H-pyran-4-yl)nicotinamide]	7.5 nM
CCOC(=O)CC(C)NC(=O)c1ccc(-c2cccc(F)c2)nc1 (stereo not drawn) [Example 157, Ethyl 3-({[6-(3-fluorophenyl)pyridin-3-yl]carbonyl}amino)butanoate]	8.79 nM
O=C(NCc1cn2ncsc2n1)c1ccc(-c2cccc(F)c2)nc1 [Example 182, 6-(3-Fluorophenyl)-N-(imidazo[2,1-b][1,3,4]thiadiazol-6-ylmethyl)nicotinamide]	79.2 nM
COC(=O)CNC(=O)[C@H](C)NC(=O)c1ccc(-c2cccc(F)c2)nc1 [Example 165, Methyl N-{[6-(3-fluorophenyl)pyridin-3-yl]carbonyl}-L-alanylglycinate]	20.8 nM
COc1cccc(-c2ccc(C(=O)NCCN3CCOC3=O)cn2)c1 [Example 298, 6-(3-Methoxyphenyl)-N-[2-(2-oxo-1,3-oxazolidin-3-yl)ethyl]nicotinamide]	528 nM
6-(3-Fluorophenyl)-N-(3- hydroxypropyl)nicotinamide [Example 435]	49.5 nM
CN1CCC(O)(CNC(=O)c2ccc(-c3cccc(F)c3)nc2)CC1 [Example 121, 6-(3-Fluorophenyl)-N-[(4-hydroxy-1-methylpiperidin-4-yl)methyl]nicotinamide]	129 nM

Molecule	IC50
N-(4-Fluorophenyl)-6-(3- fluorophenyl)nicotinamide [Example 425]	52.6 nM
Cc1cccc(-c2ccc(C(=O)NCc3ccc(Cl)c(Cl)c3)cn2)c1 [Example 456, N-(3,4-Dichlorobenzyl)-6-(3-methylphenyl)nicotinamide]	178 nM
O=C(CNC(=O)c1ccc(-c2ccc(F)cc2)nc1)OCc1ccccc1 [Example 464, Benzyl N-{[6-(4-fluorophenyl)pyridin-3-yl]carbonyl}glycinate]	≥ 1000 nM
COc1cccc(-c2ccc(C(=O)NCC(C)C)cn2)c1 [Example 338, N-isobutyl-6-(3-methoxyphenyl)nicotinamide]	298 nM
COc1cccc(-c2ccc(C(=O)NCC(=O)N(C)C)cn2)c1 [Example 343, N-[2-(Dimethylamino)-2-oxoethyl]-6-(3-methoxyphenyl)nicotinamide]	975 nM
CCOC(=O)C(C)(C)NC(=O)c1ccc(-c2cccc(F)c2)nc1 [Example 145, Ethyl N-{[6-(3-fluorophenyl)pyridin-3-yl]carbonyl}-2-methylalaninate]	223 nM
COC(C)(C)CNC(=O)c1ccc(-c2ccc(F)cc2)nc1 [Example 497, 6-(4-Fluorophenyl)-N-(2-methoxy-2-methylpropyl)nicotinamide]	≥ 1000 nM
O=C(NCc1ccc(-n2cncn2)cc1)c1ccc(-c2cccc(F)c2)nc1 [Example 180, 6-(3-Fluorophenyl)-N-[4-(1H-1,2,4-triazol-1-yl)benzyl]nicotinamide]	23.1 nM
Cc1cccc(-c2ccc(C(=O)NCCC3CCN(C)CC3)cn2)c1 [Example 253, 6-(3-Methylphenyl)-N-[2-(1-methylpiperidin-4-yl)ethyl]nicotinamide]	100 nM
O=C(NCCC1CCCCO1)c1ccc(-c2ccc(F)cc2)nc1 (stereo not drawn) [Example 270, 6-(4-Fluorophenyl)-N-[2-(tetrahydro-2H-pyran-2-yl)ethyl]nicotinamide]	216 nM
CC(C)N1CCN(CCCNC(=O)c2ccc(-c3cccc(F)c3)nc2)C(=O)C1=O [Example 106, 6-(3-Fluorophenyl)-N-[3-(4-isopropyl-2,3-dioxopiperazin-1-yl)propyl]nicotinamide]	34.3 nM
Cc1ccc2c(c1)C(NC(=O)c1ccc(-c3cccc(F)c3)nc1)CC(C)(C)O2 (stereo not drawn) [Example 530, 6-(3-Fluorophenyl)-N-(2,2,6-trimethyl-3,4-dihydro-2H-chromen-4-yl)nicotinamide]	3.03 nM
O=C(NCCN1CCCCC1)c1ccc(-c2ccc(F)cc2)nc1 [Example 324, 6-(4-Fluorophenyl)-N-(2-piperidin-1-ylethyl)nicotinamide]	≥ 1000 nM
Cc1noc(CC(NC(=O)c2ccc(-c3cccc(F)c3)nc2)c2ccccc2)n1 (stereo not drawn) [Example 87, 6-(3-Fluorophenyl)-N-[2-(3-methyl-1,2,4-oxadiazol-5-yl)-1-phenylethyl]nicotinamide]	35.8 nM
COc1cccc(-c2ccc(C(=O)NCCc3ccncc3)cn2)c1 [Example 345, 6-(3-Methoxyphenyl)-N-(2-pyridin-4-ylethyl)nicotinamide]	308 nM
O=C(NCCN1CCN(Cc2ccccc2)CC1)c1ccc(-c2ccc(F)cc2)nc1 [Example 476, N-[2-(4-Benzylpiperazin-1-yl)ethyl]-6-(4-fluorophenyl)nicotinamide]	≥ 1000 nM
Cc1noc(CCNC(=O)c2ccc(-c3cccc(F)c3)nc2)n1 [Example 181, 6-(3-Fluorophenyl)-N-[2-(3-methyl-1,2,4-oxadiazol-5-yl)ethyl]nicotinamide]	44.6 nM
CC(C)Cc1nnc(CCNC(=O)c2ccc(-c3cccc(F)c3)nc2)o1 [Example 206, 6-(3-Fluorophenyl)-N-[2-(5-isobutyl-1,3,4-oxadiazol-2-yl)ethyl]nicotinamide]	16.6 nM
O=C(NCCc1ccncc1)c1ccc(-c2cccc(F)c2)nc1 [Example 185, 6-(3-Fluorophenyl)-N-(2-pyridin-4-ylethyl)nicotinamide]	8.99 nM
CC(C)NC(=O)c1ccc(-c2cccc(F)c2)nc1 [Example 179, 6-(3-Fluorophenyl)-N-isopropylnicotinamide]	20.5 nM
O=C(NCc1ccc(Cl)cc1)c1ccc(-c2ccccc2)nc1 [Example 517, N-(4-Chlorobenzyl)-6-phenylnicotinamide]	11.8 nM
Cc1noc(C)c1CCCNC(=O)c1ccc(-c2cccc(F)c2)nc1 [Example 91, N-[3-(3,5-Dimethylisoxazol-4-yl)propyl]-6-(3-fluorophenyl)nicotinamide]	6.44 nM
CNC(=O)N1[C@@H]2CC[C@H]1C[C@H](NC(=O)c1ccc(-c3cccc(F)c3)nc1)C2 [Example 594, (3-exo)-3-({[6-(3-Fluorophenyl)-pyridin-3-yl]carbonyl}amino)-N-methyl-8-azabicyclo[3.2.1]octane-8-carboxamide]	17 nM
Cc1cccc(-c2ccc(C(=O)NCc3ccccc3C)cn2)c1 [Example 226, N-(2-Methylbenzyl)-6-(3-methylphenyl)nicotinamide]	12.4 nM
